Source: patent publication US20100035822A1, “PROLINE-RICH PEPTIDES, PHARMACEUTICAL COMPOSITION, USE OF ONE OR MORE PEPTIDES AND METHOD OF TREATMENT” (priority 2006, published 2010)
“Also recorded” adds a separate entry of the source. Square brackets hold non-standard residues; d marks the D form. Ends that are not written are not given here. Peptide text beside a SMILES is read from it. pGlu = O=C1CC[C@@H](C(=O)O)N1

Key:
[1] = Bioavailability / tissue distribution of 125I-labelled peptide in mice; format: in vivo, mouse
Excerpt: Peptide SEQ ID NO 8 was labeled with ^125I according to Greenwood and Hunter (Greenwood F C and Hunter W M. The preparation of ^125I-labelled human growth hormone of high specific radioactivity. J. Biochem., 89:114-123, 1963), with modifications [Biscayart P L, Paladini A C, Vita N, Roguin L P. Preparation of ^125I-labeled human growth hormone of high quality binding properties endowed with long-term stability. J. Immunoassay, 10, 37-56, 1989; Ribela et al., Protein Exp. Purif., 18(2):115-200, 2000). Under constant shaking, 5 μg of the synthetic SEQ ID NO 8 peptide in PBS were mixed with 1 mCi of ^125I, and 0.8 μg of chloramines T. After 5 minutes, 1 μg metabisulfite and 200 μg potassium iodine were added to finalize the labeling reaction. Purification of the labeled product was performed by reverse-phase chromatography in a disposable micro-column (Sep-Pak C18, Waters) as described by Christophe et al. [Christophe et al., The synthetic peptide trp-lys-tyr-met-val-met-NH2 specifically activates neutrophils through FPRL1/lipoxin A4 receptors and is an agonist for the orphan monocyte-expressed chemoattractant receptor FPRL2. J. Biol. Chem. 276: 21585-21593, 2001]. The reaction product was diluted in three volumes of destined water, and applied to the column that had been pre-treated with destined water. Potassium iodine (5 mM, 20 mL) was added, and the column was washed twice with 20 mL distilled water. The labeled peptide was eluted with 2 mL 100% methanol, and 5 μl aliquots were analyzed in the gamma radiation counter from Nuclear Chicago. […]
The animals were anesthetized after 1, 5, 15, 30, 45, 60, 120 and 180 min after injection, and killed by cervical dislocation, and organs (heart, spleen, liver, kidney, intestines, stomach, thyroid, testicles, and brain) were removed, flushed free of blood with 0.9% saline, and weighed. The radioactivity of each organ was determined in a gamma counter. […]
The dose percentage present in each organ was determined, using an administered dose standard. Radioactivity values were registered, given in dose percentage/mg of tissue.

[2] = Determination of Z-pro metabolites in mice urine; format: in vivo, mouse; conditions: for Metabolites in the urine: mice, 0.91 mg/Kg intraperitoneally, urine collected after 24 hours, mass spectrometry
Protocol: In vivo hydrolysis of peptides SEQ ID NO 1, SEQ ID NO 4, SEQ ID NO 5, SEQ ID NO 8, and SEQ ID NO 15 was investigated in Swiss male mice weighing approximately 22-25 g, which had free access to food and water, and were kept under a light-dark cycle of 12 hour periods.
Groups of 10 mice were treated intraperitoneally with 0.91 mg/Kg of each proline rich oligopeptide per animal, diluted in 200 μl saline. Treated and control animals (not treated) were kept in metabolic cages, and their urine was collected after 24 hours. The urine was pre-purified in a reverse phase Sep-Pak C18 micro column (Waters), which had been previously equilibrated with solvent A (H2O/0.1% TFA). Samples were eluted with 60% solvent B (90% acetonitrile/10% solvent A), lyophilized, and resuspended in 1 ml deionized water to be centrifuged at 14.000 rpm for 5 minutes. The supernatant (500 μl) was fractionated in an analytic HPLC system. The gradient was 5-65% solvent B for 30 minutes, using a flow rate of 1 ml/min and monitoring at 214 nm. Fractions were lyophilized and ressuspended in acetonitrile/H2O (1:1), containing 0.2% formic acid, and were analyzed by mass spectrometry (Q-TOF-Pro). Urine fractions from control and treated animals were compared to determine the presence of metabolites originated from the peptides being tested.

[3] = target: T1, argininosuccinate synthase (AsS) (Mus musculus, UniProt P16460); experiment: Potentiation of argininosuccinate synthase activity (phosphate generated from ATP); format: biochemical; conditions: AsS activated by SEQ ID NO 8
T1 construct: Cytosolic and membrane fractions of the renal extract (100 mg/ml total protein) were applied to separate columns; from tissue; host or cells: Balb-c mouse kidney, cytosolic and membrane fractions
T1 sequence (P16460 1-412): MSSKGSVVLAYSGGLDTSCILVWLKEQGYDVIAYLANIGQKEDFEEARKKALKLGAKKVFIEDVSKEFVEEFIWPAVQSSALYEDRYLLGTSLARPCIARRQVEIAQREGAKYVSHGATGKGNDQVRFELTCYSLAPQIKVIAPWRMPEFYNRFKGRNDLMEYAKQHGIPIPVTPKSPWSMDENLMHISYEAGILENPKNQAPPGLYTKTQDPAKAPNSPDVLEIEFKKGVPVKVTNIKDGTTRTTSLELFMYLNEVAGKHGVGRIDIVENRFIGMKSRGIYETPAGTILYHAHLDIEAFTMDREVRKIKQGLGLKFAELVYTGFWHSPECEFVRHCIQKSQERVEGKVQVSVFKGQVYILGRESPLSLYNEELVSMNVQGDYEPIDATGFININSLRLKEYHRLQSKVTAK
Protocol: Activation of the AsS enzyme of Example 3 by peptide SEQ ID NO 8 was quantified in vitro according to Hao et al. [Hao G., Xie L., Gross S. S. Argininosuccinate synthetase is reversibly inactivated by S-nitrosylation in vitro and in vivo. J. Biol. Chem., 279:36192-36200 (2004)]. This method is based on measuring the quantity of phosphate generated from ATP, when pyrophosphatase is added to the reaction medium. Since the activity of the pyrophosphatase relates directly to the enzymatic activity of the AsS, the quantity of generated pyrophosphate is a direct measurement of the AsS activity.
The AsS enzyme (1 μg) was added to the reaction mixture containing 20 mM Tris-HCl, pH 7.8, 2 mM ATP, 2 mM citrulline, 2 mM aspartate, 6 mM MgCl2, 20 mM KCl, and 0.2 units of pyrophosphatase in a final volume of 200 μL in 96 well microplates. Increasing quantities of the SEQ ID NO 8 peptide (0.5, 1 to 8 μM) were added, and samples were incubated at 37° C. for 60 minutes. The reaction was interrupted by the addition of 200 μL of ammonium molybdate buffer (10 mM ascorbic acid, 2.5 mM ammonium molybdate, 2% sulphuric acid). Resulting phosphate was determined in the samples by spectrophotometry (absorbance at 650 nm), using a standard curve obtained with inorganic phosphate.
The production rate of phosphate (enzymatic activity of the AsS) was activated up to approximately 2.5 fold upon addition of 2 μM peptide SEQ ID NO 8. […] Accessibility of endothelial and inducible nitric oxide synthase to the intracellular citrulline-arginine regeneration pathway. Biochem. Pharmacol. 69: 97-104, 2005].

[4] = tested on: SK-N-AS cells (human neuroblastoma); experiment: Free intracellular Ca2+ concentration in SK-N-AS cells (fluo-3 AM, confocal microscopy); format: cell-based
Protocol: In these experiments the variation in free intracellular calcium [Ca^2+]i concentration was measured in SK-N-AS cells (human neuroblastoma, ATCC No. CRL-2137) after addition of 1 μmolar of peptides SEQ ID NO 1 or SEQ ID NO 8, or of 1 μmolar captopril. Cells were kept in DMEM (Dulbecco Modified Medium), supplemented with 10% fetal bovine serum (FBS) and 1% non-essential amino acids, at 5% CO2 atmosphere, at 37° C., and 95% relative humidity. Cells were treated with trypsin, and replicated at adequate cell concentrations.
Measurements of variation in the concentration of free [Ca^2+]i were performed with a confocal microscope LSM 510 (Zeiss, Jena, Germany), as described by Martins et al., (Martins et al., Neuronal differentiation of P19 embryonal carcinoma cells modulates kinin B2 receptor gene expression and function. J. Biol. Chem. 280: 19576-19586, 2005). Approximately 5×10^4 SK-N-AS cells were plated on 60 mm plates 24 hours prior to measurement, and then treated with 4 μM fluo-3 AM (Invitrogen Corporation) in 0.5% DMSO and 0.1% non-ionic surfactant pluronic acid F-127 for 30 minutes at 37° C. Cells were washed with DMEM containing 10% FBS, and transferred to defined medium (5 μg/ml insulin, 30 μg/ml transferrin, 20 μM ethanolamine, 30 nM sodium selenite, 1 μM sodium pyruvate, 1% non-essential amino acids, 1 mM glutamine, 100 μg/ml penicillin, 100 μg/ml streptomycin, 10 mM HEPES pH 7.4 in DMEM). The fluorescent fluo-3 AM was excited at 488 nm, and the fluorescence measured at 526 nm.
Variations in the [Ca^2+]i were measured in non-stimulated cells, and in cells stimulated with peptides SEQ ID NO 1 or SEQ ID NO 8, or with captopril (Sigma Aldrich). Increase of fluorescence was monitored for 2 minutes, and images were acquired in 256×256 pixels every second. At the end of each experiment, 5 μM ionophore (4-Br-A23187) were added, followed by 10 mM EGTA, or 20 μM digitonin to determine maximum and minimum fluorescence, Fmax and Fmin respectively, as described by Grynkiewicz et al., (1985).
Intracellular calcium concentrations [Ca^2+]i, related to fluorescence (F) values obtained after addition of peptides SEQ ID NO 1 or SEQ ID NO 8, were calculated with the equation: [Ca^2+]=Kd(F−Fmin)/(Fmax−F), assuming Kd=450 nM for fluo-3 AM (Hallett et al., 1990).

For “SEQ ID NO 8/^125I: synthetic oligopeptide SEQ ID NO 8 labeled with ^125I ([pGlu]NWPHPQIPP; also: 125I label, place not given here)”, the “kidney concentration relative to other tissues per gram of tissue” value [1] was “higher than 10 fold”, the “share of the concentration of the injected dose remaining in the kidneys” value ([1]; kidney) was “approximately 15%” and the “time the radioactivity remains in the kidneys” value ([1]; kidney) was > 3 h.
In the case of `CC[C@H](C)[C@H](NC(=O)[C@H](CCC(N)=O)NC(=O)[C@@H]1CCCN1C(=O)[C@H](CCCNC(=N)N)NC(=O)[C@@H]1CCCN1C(=O)[C@H](Cc1c[nH]c2ccccc12)NC(=O)[C@@H]1CCC(=O)N1)C(=O)N1CCC[C@H]1C(=O)N1CCC[C@H]1C(=O)O` [SEQ ID NO 5, <EWPRPQIPP], the “Metabolites in the urine” value ([2]; 0.91 mg/kg) is reported as “<EWPRPQIP; also recorded: <EWPRP; also recorded: <EWPRPQIPP”.
For `CC[C@H](C)[C@H](NC(=O)[C@@H]1CCCN1C(=O)CNC(=O)[C@H](CC(=O)O)NC(=O)[C@@H]1CCC(=O)N1)C(=O)N1CCC[C@H]1C(=O)N1CCC[C@H]1C(=O)O` [SEQ ID NO 4, <EDGPIPP] ([pGlu]DGPIPP-OH), the “Metabolites in the urine” value [2] was “<EDGPIPP”.
With <EWGRPPGPPIPP [SEQ ID NO 14] the “Metabolites in the urine” value [2] was “<EWGRPPGPPIPP”.
In the case of `CC(N)(CC(=O)O)C(=O)O` (racemic) [MDLA, α-methyl-DL-aspartic acid, reference compound], the “effect of the inhibitor on AsS activation by peptide SEQ ID NO 8” value [3] is reported as “completely blocked; also recorded: completely inhibited”.
With <EKWAP [SEQ ID NO 1] the “form in which the peptide is excreted in urine” value ([2]; mice injected intraperitoneally) was “exception”, the “Metabolites in the urine” value [2] was “<EKW” and the “time from the peak until the [Ca2+]i plateau” value [4] was 20 s. For the same compound, the “change of intracellular [Ca2+]i” value ([4]; 1 μM) was “Increase” and the “[Ca2+]i response peak” value ([4]; immediately after addition of the peptide) was “approximately 350 nM”.
